Measurements taken from patent US20130252886A1, “METHODS OF DELAYING AND TREATING DIABETES” (priority 2010, published 2013).
“Also recorded” adds a separate entry of the source.

Key:
Format in all cases: in vivo
female NOD mice = test: Diabetes prevention/delayed onset study, fasting blood glucose
Text: Normally, ninety to one hundred percent of female NOD mice, available, for example, from Jackson Laboratory, develop diabetes by 30 weeks of age. Two treatments were designed to study delaying the onset of diabetes and diabetes intervention in NOD mice. The first examined therapies in NOD mice beginning at 8 weeks of age to delay the onset of diabetes onset.
In the diabetes prevention/delayed onset study, mice were divided into five groups. […] Group 3 received 0.4 units insulin subcutaneously just prior to consuming food.
Female NOD mice (Jackson Laboratory) were allowed to access food ad lib overnight. A 12 hour light-dark cycle was maintained and mice were housed in accordance with the NIH Animal Care and Use guidelines. Food was removed for eight hours during the day and the fasting blood glucose was tested daily at the end of the eight hour fast.
The control group received vegetable oil to the fur without anything else. […] The insulin only group was given 0.4 units insulin (SQ) just before feeding.
Diabetes was defined as a fasting blood glucose ≧200 mg/dl on three consecutive days. The average of the fasting blood glucose over the three days was included in the calculation of the average for each group in the prevention data (see Table 1 and FIG. 1).

diabetic female NOD mice = test: Diabetes treatment protocol in diabetic NOD mice (GABA before insulin, BID)
Text: Once the NOD mice became diabetic, they were shifted from the prevention/delayed onset regimen into the treatment protocol. […] The first dose of GABA was given just after removing the food from the cage and a second dose was given approximately eight hours later, just before feeding. […] Two NOD mice were maintained on insulin when they became diabetic, to serve as controls.
The first dose of GABA was given just after removing the food from the cage and a second dose was given approximately eight hours later, just before feeding. The insulin dose administered was based on each mouse's blood glucose level.
Female non-obese diabetic (NOD) mice (Jackson Laboratory) were used to study GABA treatment efficacy. Diabetes normally occurs in 90-100% of these mice by 30 weeks and they develop the insulitis and hypoinsulinemia that characterizes Type 1 diabetes in humans. Mice were housed in accordance with NIH Animal Use and Welfare guidelines with 12 hour light-dark cycle beginning at 8 weeks of age. Animals were fed a standard rodent diet ad lib overnight followed by removal of food from the cage for an 8 hour fast. Before and after the eight hour fast, blood glucose was measured weekly using a Freestyle Glucometer and then daily once mice were determined to be diabetic. Mice were considered diabetic if at the end of the 8 hours fast, on three consecutive days, glucose measurements were ≧200 mg/dl. Onset of diabetes usually began to occur when the mice were 12 weeks of age.

[1] = tested on: Female NOD mice (NOD/ShiLtJ, Taconic); test: Insulin requirement and blood glucose in diabetic NOD mice, GABA vs lysine controls (Example 6)
Protocol: Female NOD mice (NOD/ShiLtJ, Taconic) were housed in accordance with NIH Animal Use and Welfare guidelines with 12 hour light-dark cycle beginning at 9 weeks of age. The animals were fed a standard rodent diet ad lib. Blood glucose was measured weekly using a Freestyle glucometer, and then twice daily once it was determined they had diabetes.
Mice were considered diabetic if a single non-fasting blood glucose measurement was […]. For about eight weeks before the mice became diabetic, their average fasting blood glucose was 102 mg/dl. Once diabetic, blood glucose levels were measured twice daily, approximately eight hours apart. All of the mice received insulin subcutaneously twice daily and the dosage was adjusted as needed. Three diabetic mice were randomly designated as controls and were given the amino acid lysine (8 mg/kg) orally (PO) twice a day before the administration of insulin.

NOD mouse pancreas = test: Pancreas histology of NOD mice
Protocol: NOD mice, as previously described in Examples 1-4, supra, were anesthetized with an intraperitoneal injection of 75 mg/kg pentobarbital (Nembutol). When mice were unresponsive to painful stimuli, the pancreas was surgically removed and placed in 10% neutral buffered formalin. Mice were then euthanized by exsanguination. The paraffin blocks of fixed pancreas were processed by automation and 5 micron sections were prepared from three levels for automated hematoxylin and eosin staining followed by aldehyde fuchsin stain for insulin. The histology slides were prepared and stained at Jackson Laboratory, Bar Harbor, Me.

insulin-dependent dogs = test: Stimulated C-peptide in insulin-dependent dogs (radioimmunoassay); conditions: oral GABA 30, 60, 90 mg/kg, seven dogs
Text: C-peptide was monitored as a way to determine the amount of endogenous insulin synthesized and secreted in these diabetic dogs. Endogenous insulin is first biosynthesized as linked A, B and C peptides. The C-peptide is removed and circulates in the blood stream. The active insulin molecule is linked A & B peptide only. Since diabetic patients administering insulin injections receive exogenous A & B peptide, the measurement of C-peptide can determine of how much endogenous insulin is produced by the individual's pancreas.
In this study stimulated C-peptide was measured every two months. On the day of C-peptide measurements, blood was drawn at time 0 and the dog was fed stimulating C-peptide release. No exogenous insulin was given by injection to avoid suppressing endogenous insulin secretion. Blood was drawn again at 60, 90, 120 and 240 minutes. […] C-peptide was plotted as area under the curve measurements. The values for the placebo treatment have been grouped and represent all seven dogs.

[2] = Pharmacokinetics: plasma GABA concentration in diabetic dogs (LC/MS)
Protocol: Plasma GABA measurements were made by liquid chromatography/mass spectroscopy. Blood was drawn at 0, 60, 90, 120 and 240 minutes and plotted as area under the curve. These samples were drawn after a meal but in the absence of exogenous insulin administration, as previously described for C-peptide measurements. Blood samples were drawn and divided into serum separation or plasma separation tubes for C-peptide and pharmacokinetics studies respectively.
This bell shaped response mimics what is seen in dose-response curves with GABA in vitro.

[3] = 24 weeks of age, treatment just before feeding

NCCCC(=O)O [GABA, γ-aminobutyric acid]
Average Fasting Blood Glucose (female NOD mice; 13 weeks of age, Group 5 fasting GABA, 30 mg/kg 2 hours before feeding): 86 mg/dL | Average Fasting Blood Glucose (female NOD mice; 13 weeks of age, treatment just before feeding (30 mg/kg GABA PO and/or 0.4 U insulin SQ)): 80 mg/dL | Average Fasting Blood Glucose (female NOD mice; 15 weeks of age, Group 5 fasting GABA, 30 mg/kg 2 hours before feeding): 97 mg/dL | Average Fasting Blood Glucose (female NOD mice; 17 weeks of age, Group 5 fasting GABA, 30 mg/kg 2 hours before feeding): 100 mg/dL | Average Fasting Blood Glucose (female NOD mice; 19 weeks of age, Group 5 fasting GABA, 30 mg/kg 2 hours before feeding): 172 mg/dL | Average Fasting Blood Glucose (female NOD mice; 19 weeks of age, treatment just before feeding): 127 mg/dL | Average Fasting Blood Glucose (female NOD mice; 21 weeks of age, Group 5 fasting GABA, 30 mg/kg 2 hours before feeding): 239 mg/dL | Average Fasting Blood Glucose (female NOD mice; 21 weeks of age, treatment just before feeding): 138 mg/dL | mice alive and diabetes free (female NOD mice; 22 weeks of age, Group 2, 30 mg/kg GABA PO just before feeding (4/4 mice)): 100% | mice that became diabetic (female NOD mice; 22 weeks of age, Group 5, 30 mg/kg GABA under fasting conditions): 50% | Average Fasting Blood Glucose (female NOD mice; 22 weeks of age, Group 5 fasting GABA, 30 mg/kg 2 hours before feeding): 266 mg/dL | Average Fasting Blood Glucose (female NOD mice; 22 weeks of age, treatment just before feeding): 173 mg/dL | Average Fasting Blood Glucose (female NOD mice; 24 weeks of age, Group 5 fasting GABA, 30 mg/kg 2 hours before feeding): 265 mg/dL | Average Fasting Blood Glucose (female NOD mice; [3]): 152 mg/dL | average fasting blood glucose compared with other treatment groups (female NOD mice; [3]): significantly lower | average fasting blood glucose compared with other groups (female NOD mice; 24 weeks, Group 5, 30 mg/kg GABA under fasting conditions): significantly higher | Average Fasting Blood Glucose (female NOD mice; 26 weeks of age, Group 5 fasting GABA, 30 mg/kg 2 hours before feeding): 226 mg/dL | Average Fasting Blood Glucose (female NOD mice; 26 weeks of age, treatment just before feeding): 253 mg/dL | prevention / delay of diabetes onset (female NOD mice; Group 2, 30 mg/kg GABA just before feeding): delayed the longest; also recorded: most successful prevention treatment | effectiveness of prevention treatment (female NOD mice; Group 5, 30 mg/kg GABA under fasting conditions, vs GABA just before feeding): less effective | insulin dose required over the course of treatment (diabetic female NOD mice; 60 mg/kg GABA BID, insulin dosed to keep fasting blood glucose ≦200 (Ex. 2) or ≦150 mg/dl (Ex. 4)): declined markedly; also recorded: rapidly required less insulin; also recorded: significantly less insulin over time | lowering blood glucose levels and insulin requirements after onset of diabetes (diabetic female NOD mice; 60 mg/kg GABA PO BID): effective treatment | fasting and fed blood glucose in mice that became insulin independent (diabetic female NOD mice; 60 mg/kg GABA orally over approximately 11 weeks): completely restored to normal | number of insulin dependent diabetic mice that became insulin independent (diabetic female NOD mice; 60 mg/kg GABA treatment): four | reduction in insulin dose to keep fasting blood glucose ≦150 mg/dl (diabetic female NOD mice; all diabetic mice treated with 60 mg/kg GABA): ≥ 85% | decrease in average insulin requirement, of the maximum dose (diabetic female NOD mice; eight diabetic mice, 60 mg/kg GABA BID): 85% | insulin required to maintain an average weekly blood glucose of 200 mg/dl (diabetic female NOD mice; single mouse of FIG. 15, at sacrifice): 0.0025 units | insulin dose at sacrifice, of the original dose (diabetic female NOD mice; single mouse of FIG. 15, diabetic 34 weeks, on insulin and GABA throughout): less than 1% | insulin requirement to maintain fasting blood glucose ≦150 mg/dl (diabetic female NOD mice; three of the eight mice treated with GABA (FIG. 6)): eventually came to zero | decrease in insulin compared to control mice ([1]; 60 or 90 mg/kg GABA, over 9 weeks): 4 fold | mice that became insulin independent ([1]; GABA treated group (4 out of 8)): 50% | blood glucose average in mice not requiring insulin ([1]; on oral GABA alone): below 150 mg/dl | mean blood glucose ([1]; over 9 weeks, 60 or 90 mg/kg GABA with insulin): 310 mg/dL | pancreatic histology, islets and inflammation (NOD mouse pancreas; mouse that remained on GABA (and insulin) until sacrifice, FIG. 15): regenerated islets and little to no inflammation | pancreatic histology after stopping GABA treatment (NOD mouse pancreas; mouse weaned off insulin, sacrificed at 64 weeks, FIG. 14): causes the inflammation to return to the pancreas | C-peptide (area under the curve) (insulin-dependent dogs): dose dependent increase | change of plasma GABA levels at visit 14 ([2]; dose raised to 90 mg/kg): decreases two fold | increase of plasma GABA levels between visit 8 and visit 12 ([2]; oral GABA dose doubled (30 to 60 mg/kg)): ~80 fold
